What was measured:
Details in all cases: average of at least two experiments
[1] = target: dopamine D2 receptor (Homo sapiens (Human), UniProt P14416); assay: Secondary radioligand binding assay, D2; design: key to Ki D2: “—” indicates that a binding interaction was not detected
Method: (§1) 1. Secondary Radioligand Binding Assays
(§2) The detailed experimental protocols for the radioligand and functional receptor assays are available on the NIMH PDSP website at http://pdsp.med.unc.edu/UNC-CH %20Protocol %20Book.pdf.
(§3) Radioligand is diluted to five times the assay concentration (see Table 18) in Standard Binding Buffer. Typically, the assay concentration of radioligand is a value between one half the KD and the KD of a particular radioligand at its target. 50 μl aliquots of radioligand are dispensed into the wells of a 96-well plate containing 100 μl of Standard Binding Buffer. Then, duplicate 50 μl aliquots of the test and reference compound dilutions are added.
(§4) The 250 μl reactions are incubated at room temperature and shielded from light (to prevent photolysis of light-sensitive ligands) for 1.5 hours, then harvested by rapid filtration onto Whatman GF/B glass fiber filters pre-soaked with 0.3% polyethyleneimine using a 96-well Brandel harverster. Four rapid 500 μl washes are performed with chilled Standard Binding Buffer to reduce non-specific binding. Filters are placed in 6 ml scintillation tubes and allowed to dry overnight. The next day, 4 ml of EcoScint scintillation cocktail (National Diagnostics) are added to each tube. The tubes are capped, labeled, and counted by liquid scintillation counting. […] The filter mats are dried, then scintillant is melted onto the filters and the radioactivity retained on the filters is counted in a Microbeta scintillation counter.
(§5) Raw data (dpm) representing total radioligand binding (i.e. specific+non-specific binding) are plotted as a function of the logarithm of the molar concentration of the competitor (i.e. test or reference compound).
(§6) B. Dopamine Receptors: D1, D2, D3, D4, D5 Assay Buffers: Dopamine Binding Buffer (50 mM NaCl, 50 mM HEPES-HCl, 5 mM MgCl2, 0.5 mM EDTA, pH 7.4) Membrane Fraction Source: Transiently or stably transfected cell lines (e.g. HEK293, COS, CHO, NIH3T3)
(§7) The method is carried out in the manner described for the serotonin receptor assay above. Eleven dilutions (5× assay concentration) of the test and reference (see Table 19) compounds are prepared in Dopamine Binding Buffer by serial dilution, as previously described. Radioligand is diluted to five times the assay concentration (see Table 20) in Dopamine Binding Buffer.

[2] = target: dopamine D1 receptor (Homo sapiens (Human), UniProt P21728); assay: Secondary radioligand binding assay, D1; design: key to Ki D1: “—” indicates that a binding interaction was not detected
Sequence of dopamine D1 receptor (P21728 whole entry): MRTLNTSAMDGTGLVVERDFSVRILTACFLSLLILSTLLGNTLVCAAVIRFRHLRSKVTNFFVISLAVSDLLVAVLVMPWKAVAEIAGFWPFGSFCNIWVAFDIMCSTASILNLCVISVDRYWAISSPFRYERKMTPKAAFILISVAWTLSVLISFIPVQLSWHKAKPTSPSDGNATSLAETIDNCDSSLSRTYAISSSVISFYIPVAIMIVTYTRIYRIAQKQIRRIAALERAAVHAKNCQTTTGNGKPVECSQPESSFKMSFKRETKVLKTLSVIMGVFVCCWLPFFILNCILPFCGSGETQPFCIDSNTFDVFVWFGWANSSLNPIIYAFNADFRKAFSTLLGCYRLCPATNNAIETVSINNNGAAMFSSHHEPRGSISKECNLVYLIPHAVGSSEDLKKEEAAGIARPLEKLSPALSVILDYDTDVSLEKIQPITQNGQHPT
Method: as §1, §2, §3, §4, §5, §6, §7

[3] = target: 5HT1d receptor (Homo sapiens (Human), UniProt P28221); assay: Secondary radioligand binding assay, 5HT1d; design: key to Ki 5HT1d: “—” indicates that a binding interaction was not detected;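 also: competition binding against a radioligand on membranes from transfected cell lines, 1.5 h at room temperature, filter-retained radioactivity counted by liquid scintillation, total binding plotted versus log competitor concentration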
Sequence of 5HT1d receptor (P28221 whole entry): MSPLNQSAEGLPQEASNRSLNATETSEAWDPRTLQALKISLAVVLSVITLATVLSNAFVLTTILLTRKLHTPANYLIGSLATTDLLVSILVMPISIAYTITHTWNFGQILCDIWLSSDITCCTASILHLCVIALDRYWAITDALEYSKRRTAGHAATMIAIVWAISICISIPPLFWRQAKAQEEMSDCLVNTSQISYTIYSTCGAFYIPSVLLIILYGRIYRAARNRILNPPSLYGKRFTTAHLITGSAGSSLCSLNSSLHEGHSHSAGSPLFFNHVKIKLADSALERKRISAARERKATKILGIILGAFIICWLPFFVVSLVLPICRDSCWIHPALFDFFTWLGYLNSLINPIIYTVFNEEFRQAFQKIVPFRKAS

[4] = target: 5HT3 receptor (Homo sapiens (Human), UniProt P46098); assay: Secondary radioligand binding assay, 5HT3; design: key: “—” indicates that a binding interaction was not detected;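 also: radioligand competition binding on membranes from transfected cell lines, 1.5 h incubation at room temperature, filter-retained radioactivity measured by liquid scintillation counting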
Sequence of 5HT3 receptor (P46098 24-478): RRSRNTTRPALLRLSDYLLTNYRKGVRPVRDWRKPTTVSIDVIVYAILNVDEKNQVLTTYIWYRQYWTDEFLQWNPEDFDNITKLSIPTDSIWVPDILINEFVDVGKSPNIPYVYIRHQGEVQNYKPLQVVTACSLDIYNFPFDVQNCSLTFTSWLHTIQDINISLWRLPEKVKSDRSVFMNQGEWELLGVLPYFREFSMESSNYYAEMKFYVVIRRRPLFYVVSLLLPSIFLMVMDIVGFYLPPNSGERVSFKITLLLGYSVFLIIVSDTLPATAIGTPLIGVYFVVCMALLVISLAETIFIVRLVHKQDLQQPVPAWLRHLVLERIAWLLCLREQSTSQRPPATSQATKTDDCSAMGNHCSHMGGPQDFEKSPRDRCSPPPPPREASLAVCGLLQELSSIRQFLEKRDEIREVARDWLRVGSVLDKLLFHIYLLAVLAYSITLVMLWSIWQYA

[5] = target: 5HT1e receptor (Homo sapiens (Human), UniProt P28566); assay: Secondary radioligand binding assay, 5HT1e; design: key: “—” indicates that a binding interaction was not detected;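 also: competition binding against a radioligand on membranes from transfected cell lines, 1.5 h at room temperature, bound radioactivity counted by liquid scintillation after filtration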
Sequence of 5HT1e receptor (P28566 whole entry): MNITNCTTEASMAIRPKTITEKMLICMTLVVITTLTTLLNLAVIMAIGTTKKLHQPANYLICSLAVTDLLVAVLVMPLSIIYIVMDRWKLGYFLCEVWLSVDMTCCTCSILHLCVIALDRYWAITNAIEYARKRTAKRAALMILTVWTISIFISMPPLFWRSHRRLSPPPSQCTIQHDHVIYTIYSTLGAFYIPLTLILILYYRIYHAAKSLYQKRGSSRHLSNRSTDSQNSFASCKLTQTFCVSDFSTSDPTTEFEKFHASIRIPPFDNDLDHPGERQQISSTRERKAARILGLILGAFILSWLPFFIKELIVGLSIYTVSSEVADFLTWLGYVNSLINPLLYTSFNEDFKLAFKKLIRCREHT

[6] = target: 5HT4 receptor (Homo sapiens (Human), UniProt Q13639); assay: Secondary radioligand binding assay, 5HT4; design: key: “—” indicates that a binding interaction was not detected
Sequence of 5HT4 receptor (Q13639 whole entry): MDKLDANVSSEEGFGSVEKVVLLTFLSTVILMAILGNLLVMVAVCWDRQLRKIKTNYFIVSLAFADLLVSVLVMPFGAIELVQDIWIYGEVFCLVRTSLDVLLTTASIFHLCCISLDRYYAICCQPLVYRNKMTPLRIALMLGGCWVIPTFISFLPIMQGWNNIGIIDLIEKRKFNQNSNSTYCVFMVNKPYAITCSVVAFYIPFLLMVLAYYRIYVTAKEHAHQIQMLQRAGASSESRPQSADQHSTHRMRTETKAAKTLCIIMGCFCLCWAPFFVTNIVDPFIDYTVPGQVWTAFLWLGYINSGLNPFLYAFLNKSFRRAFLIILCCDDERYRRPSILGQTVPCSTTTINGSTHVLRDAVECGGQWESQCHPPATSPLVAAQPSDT
Method: 1. Secondary Radioligand Binding Assays The detailed experimental protocols for the radioligand and functional receptor assays are available on the NIMH PDSP website at http://pdsp.med.unc.edu/UNC-CH %20Protocol %20Book.pdf. Assay Buffer: Standard Binding Buffer (50 mM Tris-HCl, 10 mM MgCl2, 1 mM EDTA, pH 7.4) Membrane Fraction Source: Transiently or stably transfected cell lines (e.g., HEK293, COS, CHO, NIH3T3) Protocol adapted from Roth et al. (1986), J. Pharmacol. Exp. Ther., 238(2): 480-485; and Roth et al. (1994), J. Pharmacol. Exp. Ther., 268(3): 1403-1410. […] A similar stock of a reference compound (positive control) is also prepared. […] Radioligand is diluted to five times the assay concentration (see Table 18) in Standard Binding Buffer. Typically, the assay concentration of radioligand is a value between one half the KD and the KD of a particular radioligand at its target. 50 μl aliquots of radioligand are dispensed into the wells of a 96-well plate containing 100 μl of Standard Binding Buffer. Then, duplicate 50 μl aliquots of the test and reference compound dilutions are added. Finally, crude membrane fractions of cells expressing recombinant target (prepared from 10 cm plates by harvesting PBS-rinsed monolayers, resuspending and lysing in chilled, hypotonic 50 mM Tris-HCl, pH 7.4, centrifuging at 20,000×g, decanting the supernatant and storing at −80° C.; typically, one 10 cm plate provides sufficient material for 24 wells), are resuspended in 3 ml of chilled Standard Binding Buffer and homogenized by several passages through a 26 gauge needle, then 50 μl are dispensed into each well. […] Four rapid 500 μl washes are performed with chilled Standard Binding Buffer to reduce non-specific binding. Filters are placed in 6 ml scintillation tubes and allowed to dry overnight. The next day, 4 ml of EcoScint scintillation cocktail (National Diagnostics) are added to each tube. The tubes are capped, labeled, and counted by liquid scintillation counting. For higher throughput assays, bound radioactivity is harvested onto 0.3% polyethyleneimine-treated, 96-well filter mats using a 96-well Filtermate harvester. The filter mats are dried, then scintillant is melted onto the filters and the radioactivity retained on the filters is counted in a Microbeta scintillation counter. Raw data (dpm) representing total radioligand binding (i.e. specific+non-specific binding) are plotted as a function of the logarithm of the molar concentration of the competitor (i.e. test or reference compound).

Sequence of dopamine D2 receptor (P14416 whole entry, species assumed): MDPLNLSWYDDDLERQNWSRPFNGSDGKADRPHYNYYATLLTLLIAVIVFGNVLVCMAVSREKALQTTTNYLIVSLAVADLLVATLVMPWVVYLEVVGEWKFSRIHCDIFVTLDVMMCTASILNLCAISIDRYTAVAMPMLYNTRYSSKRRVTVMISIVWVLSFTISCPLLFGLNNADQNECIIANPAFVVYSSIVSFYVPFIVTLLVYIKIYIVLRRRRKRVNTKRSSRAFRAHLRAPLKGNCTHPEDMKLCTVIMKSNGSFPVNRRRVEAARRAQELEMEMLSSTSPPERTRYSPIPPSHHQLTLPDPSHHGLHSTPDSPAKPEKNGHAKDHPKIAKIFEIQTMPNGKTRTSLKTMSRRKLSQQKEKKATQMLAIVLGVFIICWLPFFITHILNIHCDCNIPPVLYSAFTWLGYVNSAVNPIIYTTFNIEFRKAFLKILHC

Compound | Ki D2 [1] | Ki 5HT1d [3] | Ki [1] [µM] | Ki [2] [µM] | Ki [3] [µM] | Ki 5HT3 [4] | Ki 5HT1e [5] | Ki 5HT4 [6] | Ki D1 [2]
COc1cccc(OC[C@@H]2CN(CCN3CCc4ccccc43)CCO2)c1 [Compound 25s, (S)-4-(2-(Indolin-1-yl)ethyl)-2-((3-methoxyphenoxy)methyl)morpholine] |  |  | 10 | 8.37 | 1.98 | — | — | — | 
Cc1ncccc1OC[C@@H]1CN(CCN2CCc3ccccc32)CCO1 [Compound 26s, (S)-4-(2-(Indolin-1-yl)ethyl)-2-(((2-methylpyridin-3-yl)oxy)methyl)morpholine] | — | — |  |  |  | — | — | — | —
Clc1cncc(OC[C@@H]2CN(CCN3CCc4ccccc43)CCO2)c1 [Compound 27s, (S)-2-(((5-Chloropyridin-3-yl)oxy)methyl)-4-(2-(indolin-1-yl)ethyl)morpholine] |  | — | > 10 | 5.85 |  | — | — | — | 
Cc1ccc(OC[C@H]2CN(CCN3CCc4ccccc43)CCO2)cn1 [Compound 28r, (R)-4-(2-(Indolin-1-yl)ethyl)-2-(((6-methylpyridin-3-yl)oxy)methyl)morpholine] | — | — |  |  |  | — | — | — | —
Cc1ccc(OC[C@@H]2CN(CCN3CCc4ccccc43)CCO2)cn1 [Compound 28s, (S)-4-(2-(Indolin-1-yl)ethyl)-2-(((6-methylpyridin-3-yl)oxy)methyl)morpholine] | — | — |  |  |  | — | — | — | —
Cc1ccnc(C)c1OC[C@H]1CN(CCN2CCc3ccccc32)CCO1 [Compound 29r, (R)-2-(((2,4-Dimethylpyridin-3-yl)oxy)methyl)-4-(2-(indolin-1-yl)ethyl)morpholine] | — | — |  |  |  | — | — | — | —
CC1Cc2ccccc2N1C(=O)CN1CCO[C@H](COc2cccc(Cl)c2)C1 (stereo partly drawn) [Compound 64] | — | — |  |  |  | — | — | — | —
CC1Cc2ccccc2N1C(=O)CN1CCO[C@@H](COc2cccc(Cl)c2)C1 (stereo partly drawn) [Compound 65] | — | — |  |  |  | — | — | — | —

Now from value to molecule, other results behind:

Ki D2 [1] | Ki 5HT1d [3] | Compound | Ki [1] [µM] | Ki [2] [µM] | Ki [3] [µM] | Ki 5HT3 [4] | Ki 5HT1e [5] | Ki 5HT4 [6] | Ki D1 [2]
— | — | Cc1ncccc1OC[C@H]1CN(CCN2CCc3ccccc32)CCO1 [Compound 26r, (R)-4-(2-(Indolin-1-yl)ethyl)-2-(((2-methylpyridin-3-yl)oxy)methyl)morpholine] |  |  |  | — | — | — | —
— | — | Clc1cncc(OC[C@H]2CN(CCN3CCc4ccccc43)CCO2)c1 [Compound 27r, (R)-2-(((5-Chloropyridin-3-yl)oxy)methyl)-4-(2-(indolin-1-yl)ethyl)morpholine] |  |  |  | — | — | — | —
— | — | Cc1ncccc1OC[C@@H]1CN(CC(=O)N2c3ccccc3CC2C)CCO1.Cl (stereo partly drawn) [Compound 60] |  | > 10 |  | — | — | — | 
— | — | Cc1ncccc1OC[C@@H]1CN(CC(=O)N2c3ccccc3C[C@H]2C)CCO1 [Compound 61] |  | > 10 |  | — | — | — | 
— | — | Cc1ncccc1OC[C@H]1CN(CC(=O)N2c3ccccc3CC2C)CCO1 (stereo partly drawn) [Compound 62] |  |  |  | — | — | — | —
— | — | Cc1ncccc1OC[C@H]1CN(CC(=O)N2c3ccccc3C[C@H]2C)CCO1 [Compound 63] |  |  |  | — | — | — | —
— | — | Cc1ccccc1OC[C@H]1CN(CC(=O)N2c3ccccc3CC2C)CCO1 (stereo partly drawn) [Compound 66] |  |  |  | — | — | — | —
— | — | C[C@@H]1Cc2ccccc2N1C(=O)CN1CCO[C@@H](COc2ccncc2)C1 [Compound 67] |  |  |  | — | — | — | —

From patent US9079895B2, “Morpholino compounds, uses and methods” (University of Dundee, priority 2012, dated 2015)
